Laboratory results from patent publication US10647675B2 (priority 2015, dated 2020).
≈ marks a conversion by molar mass, not a printed value.

Assays:
[1] = tested on: Trichophyton rubrum KD-1130; experiment: Antifungal activity evaluation test: minimum inhibitory concentration (MIC), broth dilution by reference to CLSI M38-A2; type: cell-based; conditions: KD1130, read-out: MIC (T. rubrum)
Description: (§1) The minimum inhibitory concentration (MIC) for Trichophyton mentagrophytes and Trichophyton rubrum was measured by the following procedure by reference to Clinical and Laboratory standards Institute (CLSI) guidelines M38-A2. Reference document for the measurement method: National Committee for a Clinical Laboratory Standards. Reference method for broth dilution antifungal susceptibility testing of filamentous fungi. Approved standard Second edition M38-A2. Wayne, Pa.: National Committee for a Clinical Laboratory Standards, 2008. • Test compound solution: A test compound was dissolved in dimethyl sulfoxide (DMSO) at a concentration of 2.5 mg/mL to give a stock solution. The stock solution was appropriately diluted with DMSO to prepare a 2-fold dilution series. As control compounds, terbinafine and amorolfine were used. • Test strains: Trichophyton mentagrophytes SM-110 and Trichophyton rubrum KD-1130 were used. • Preparation of fungal culture to be inoculated: The above-mentioned test strain was suspended in 0.05% Tween 80-containing saline, and the fungi of the genus Trichophyton were prepared to a fungal concentration of 1×10^6 cells/mL by using a hemocytometer. Then, using MOPS-buffered RPMI 1640 medium (pH 7.0) as a test medium, a fungal culture of the fungi of the genus Trichophyton was diluted 250-fold (4×10^3 cells/mL) to give a fungal culture for inoculation. • MIC measurement of genus Trichophyton fungi: MOPS-buffered RPMI 1640 medium (pH 7.0) was dispensed by 100 μL to given wells of a 96 well U-bottom microplate. Then, the test compound solution (2 μL) was added, the mixture was sufficiently stirred by a plate mixer. The fungal culture (100 μL) was inoculated and the mixture was cultured at 35° C. for 4 days (final fungal concentration: 2×10^3 cells/mL). After the culture, the minimum drug concentration of a well in which a growth inhibitory action of not less than 80% was visually observed as compared to a growth control was taken as a minimum inhibitory concentration (MIC: μg/mL).
(§2) The abbreviations in the Tables mean the following fungi and compounds. • T. menta.: Trichophyton mentagrophytes • T. rubrum: Trichophyton rubrum • TBF: terbinafine • AMF: amorolfine

[2] = tested on: Trichophyton mentagrophytes SM-110; experiment: as above; type: cell-based; conditions: SM110, read-out: MIC (T. menta.)
Description: as §1, §2

| Structure (SMILES) | MIC [1] [µg/mL] | MIC [2] [µg/mL] |
| --- | --- | --- |
| Cc1ccncc1-c1cccnc1Oc1ccc(C(C)(F)F)nc1 [I-91, 2-{[6-(1,1-difluoroethyl)pyridin-3-yl]oxy}-4′-methyl-3,3′-bipyridine] | 0.2 to 0.78 (≈ 0.611 to 2.38 µM) | 0.2 to 0.78 (≈ 0.611 to 2.38 µM) |
| COc1ccncc1-c1cccnc1Oc1ccc(OC(F)F)cc1 [I-238, 2-[4-(difluoromethoxy)phenoxy]-4′-methoxy-3,3′-bipyridine] | 0.2 to 0.78 (≈ 0.581 to 2.27 µM) | 0.2 to 0.78 (≈ 0.581 to 2.27 µM) |
| Cc1ncccc1-c1cccnc1Oc1ccc(C(F)(F)F)nc1 [I-24, 2-methyl-2′-{[6-(trifluoromethyl)pyridin-3-yl]oxy}-3,3′-bipyridine] | 1.56 to 6.25 (≈ 4.71 to 18.9 µM) | 1.56 to 6.25 (≈ 4.71 to 18.9 µM) |
| COc1ccccc1-c1cc(C)cnc1Oc1ccc(C(F)(F)F)nc1 [I-66, 3-(2-methoxyphenyl)-5-methyl-2-{[6-(trifluoromethyl)pyridin-3-yl]oxy}pyridine] | 0.2 to 0.78 (≈ 0.555 to 2.16 µM) | 1.56 to 6.25 (≈ 4.33 to 17.3 µM) |
| C#CCOc1ccccc1-c1cccnc1Oc1ccc(C(F)(F)F)nc1 [I-56, 3-[2-(2-propyn-1-yloxy)phenyl]-2-{[6-(trifluoromethyl)pyridin-3-yl]oxy}pryidine] | 0.2 to 0.78 (≈ 0.54 to 2.11 µM) | 0.2 to 0.78 (≈ 0.54 to 2.11 µM) |
| Cc1nn(C)c(C)c1-c1cccnc1Oc1ccc(C(F)(F)F)nc1 [I-346, 2-{[6-(trifluoromethyl)pyridin-3-yl]oxy}-3-(1,3,5-trimethyl-1H-pyrazol-4-yl)pyridine] | 1.56 to 6.25 (≈ 4.48 to 17.9 µM) | 1.56 to 6.25 (≈ 4.48 to 17.9 µM) |
| COc1ccncc1-c1cccnc1Oc1cnc(C2CC2)c(Cl)c1 [I-132, 2-[(5-chloro-6-cyclopropylpyridin-3-yl)oxy]-4′-methoxy-3,3′-bipyridine] | 1.56 to 6.25 (≈ 4.41 to 17.7 µM) | 0.2 to 0.78 (≈ 0.565 to 2.2 µM) |
| COc1cc(F)ccc1-c1cccnc1Oc1ccc(C(F)(F)Cn2ccnc2)nc1 [I-158, 2-{(6-[1,1-difluoro-2-(1H-imidazol-1-yl)ethyl]pyridin-3-yl)oxy}-3-(4-fluoro-2-methoxyphenyl)pyridine] | 0.2 to 0.78 (≈ 0.469 to 1.83 µM) | ≤ 0.1 |
| CCOC(=O)COc1ncc(Oc2ncccc2-c2ccc(F)cc2OC)cn1 [I-196, ethyl 2-[(5-{[3-(4-fluoro-2-methoxyphenyl)pyridin-2-yl]oxy}-pyrimidin-2-yl)oxy]acetate] | 0.2 to 0.78 (≈ 0.501 to 1.95 µM) | 0.2 to 0.78 (≈ 0.501 to 1.95 µM) |
| CC(=O)c1ccc(Oc2ncccc2-c2cnccc2C)cc1 [I-422] | 0.2 to 0.78 (≈ 0.657 to 2.56 µM) | 0.2 to 0.78 (≈ 0.657 to 2.56 µM) |
| COc1ccccc1-c1cccnc1Oc1ccc(N(C)C)nc1 [I-365] | 0.2 to 0.78 (≈ 0.622 to 2.43 µM) | ≤ 0.1 |
| Cc1ccncc1-c1cccnc1Oc1ccc(C(F)(F)F)nc1 [I-25] | 0.2 to 0.78 (≈ 0.604 to 2.35 µM) | 0.2 to 0.78 (≈ 0.604 to 2.35 µM) |
| COc1ncccc1-c1cccnc1Oc1ccc(C2CC2)nc1 [I-130, 2-[(6-cyclopropylpyridin-3-yl)oxy]-2′-methoxy-3,3′-bipyridine] | 0.2 to 0.78 (≈ 0.626 to 2.44 µM) | 0.2 to 0.78 (≈ 0.626 to 2.44 µM) |
| COc1ccccc1-c1cccnc1Oc1cnc2c(c1)CCCC2=O [I-141, 3-{[3-(2-methoxyphenyl)pyridin-2-yl]oxy}-6,7-dihydroquinolin-8(5H)-one] | 1.56 to 6.25 (≈ 4.5 to 18 µM) | 1.56 to 6.25 (≈ 4.5 to 18 µM) |
| FC(F)(F)c1ccc(Oc2ncccc2-n2ccc3cccnc32)cn1 [I-50, 1-(2-{[6-(trifluoromethyl)pyridin-3-yl]oxy}pyridin-3-yl)-1H-pyrrolo[2,3-b]pryidine] | 0.2 to 0.78 (≈ 0.561 to 2.19 µM) | 0.2 to 0.78 (≈ 0.561 to 2.19 µM) |
| O=[N+]([O-])c1ccccc1-c1cccnc1Oc1ccc(C(F)(F)F)nc1 [I-15, 3-(2-nitrophenyl)-2-{[6-(trifluoromethyl)pyridin-3-yl]oxy}pyridine] | 0.2 to 0.78 (≈ 0.554 to 2.16 µM) | 0.2 to 0.78 (≈ 0.554 to 2.16 µM) |
| COc1ccc(Oc2ncccc2-c2cnccc2OC)cc1 [I-242, 4′-methoxy-2-(4-methoxyphenoxy)-3,3′-bipyridine] | 1.56 to 6.25 (≈ 5.06 to 20.3 µM) | 0.2 to 0.78 (≈ 0.649 to 2.53 µM) |
| CCc1ccc(Oc2ncccc2-c2cc3nccn3cc2C)cc1 [I-293, 7-[2-(4-ethylphenoxy)pyridin-3-yl]-6-methylimidazo[1,2-a]pyridine] | 1.56 to 6.25 (≈ 4.74 to 19 µM) | 1.56 to 6.25 (≈ 4.74 to 19 µM) |
| CCOC(=O)c1ccc(Oc2ncccc2-c2cnccc2C)cc1 [I-419] | ≤ 0.1 | ≤ 0.1 |
| COc1cccc(-c2cccnc2Oc2ccc(C(F)(F)F)nc2)n1 [I-374, 6-methoxy-2′-{[6-(trifluoromethyl)pyridin-3-yl]oxy}-2,3′-bipyridine] | ≤ 0.1 | ≤ 0.1 |
| COc1cc(-c2cncnc2Oc2ccc(C(F)(F)F)nc2)c(F)cc1F [I-329, 5-(2,4-difluoro-5-methoxyphenyl)-4-{[6-(trifluoromethyl)pyridin-3-yl]oxy}pyrimidine] | ≤ 0.1 | ≤ 0.1 |

More lines, now with the values ahead:

| MIC [1] [µg/mL] | MIC [2] [µg/mL] | Structure (SMILES) |
| --- | --- | --- |
| ≤ 0.1 | ≤ 0.1 | CCc1ccc(Oc2ncccc2-c2cccnc2OC)cc1 [I-280, 2-(4-ethylphenoxy)-2′-methoxy-3,3′-bipyridine] |
| ≤ 0.1 | ≤ 0.1 | CCC(C)c1ccc(Oc2ncccc2-c2cnccc2OC)cc1 (stereo not drawn) [I-256, 2-[4-(sec-butyl)phenoxy]-4′-methoxy-3,3′-bipyridine] |
| ≤ 0.1 | 0.2 to 0.78 (≈ 0.568 to 2.21 µM) | Fc1cccc(-c2cccnc2Oc2ccc(C(F)(F)F)nc2)c1F [I-9, 3-(2,3-difluorophenyl)-2-{[6-(trifluoromethyl)pyridin-3-yl]oxy}pyridine] |
| ≤ 0.1 | ≤ 0.1 | COc1ncc(F)cc1-c1cccnc1Oc1ccc(C(F)(F)F)cc1 [I-209, 5-fluoro-2-methoxy-2′-[4-(trifluoromethyl)phenoxy]-3,3′-bipyridine] |
| ≤ 0.1 | ≤ 0.1 | Cc1ccncc1-c1cccnc1Oc1ccc(-n2cccn2)cc1 [I-433] |
| ≤ 0.1 | ≤ 0.1 | COc1c(F)cccc1-c1cccnc1Oc1ccc(C(F)(F)F)nc1 [I-13, 3-(3-fluoro-2-methoxyphenyl)-2-{[6-(trifluoromethyl)pyridin-3-yl]oxy}pyridine] |
| ≤ 0.1 | ≤ 0.1 | COc1ccccc1-c1cccnc1Oc1ccc2c(c1)CCCC2 [I-268, 3-(2-methoxyphenyl)-2-[(5,6,7,8-tetrahydronaphthalen-2-yl)oxy]pyridine] |
| ≤ 0.1 | ≤ 0.1 | COc1ccccc1-c1cccnc1Oc1cnc2c(c1)CCCC2 [I-134, 3-{[3-(2-methoxyphenyl)pyridin-2-yl]oxy}-5,6,7,8-tetrahydroquinoline] |
| ≤ 0.1 | ≤ 0.1 | C#Cc1ccccc1-c1cccnc1Oc1ccc(C(F)(F)F)nc1 [I-64, 3-(2-ethynylphenyl)-2-{[6-(trifluoromethyl)pyridin-3-yl]oxy}pyridine] |
| ≤ 0.1 | ≤ 0.1 | C=Cc1ccc(Oc2ncccc2-c2cnccc2OC)cc1 [I-258, 4′-methoxy-2-(4-vinylphenoxy)-3,3′-bipyridine] |
| ≤ 0.1 | ≤ 0.1 | Fc1cccc(F)c1-c1cccnc1Oc1ccc(C(F)(F)F)nc1 [I-6, 3-(2,6-difluorophenyl)-2-{[6-(trifluoromethyl)pyridin-3-yl]oxy}pyridine] |
| ≤ 0.1 | ≤ 0.1 | FC(F)(F)c1ccc(Oc2ncccc2-c2cccc3cc(Cl)nn23)cn1 [I-375, 2-chloro-7-(2-{[6-(trifluoromethyl)pyridin-3-yl]oxy}pyridin-3-yl)pyrazolo[1,5-a]pyridine] |
| ≤ 0.1 | ≤ 0.1 | Cc1noc(-c2ccc(Oc3ncccc3-c3cnccc3C)cc2)n1 [I-421] |
| ≤ 0.1 | ≤ 0.1 | COc1ncccc1-c1cncnc1Oc1ccc(C(F)(F)F)cc1 [I-330, 5-(2-methoxypyridin-3-yl)-4-[4-(trifluoromethyl)phenoxy]pyrimidine] |
| ≤ 0.1 | ≤ 0.1 | FC(F)(F)c1ccc(Oc2ncccc2-c2cccc3c(Cl)cnn23)cn1 [I-51, 3-chloro-7-(2-{[6-(trifluoromethyl)pyridin-3-yl]oxy}pyridin-3-yl)-pyrazolo[1,5-a]pyridine] |
| ≤ 0.1 | ≤ 0.1 | CCc1ccc(Oc2ncccc2-c2cncc(F)c2OC)cc1 [I-283, 2-(4-ethylphenoxy)-5′-fluoro-4′-methoxy-3,3′-bipyridine] |
| ≤ 0.1 | ≤ 0.1 | COc1ncccc1-c1nccnc1Oc1ccc(OCc2ccccc2)cc1 [I-318, 2-[4-(benzyloxy)phenoxy]-3-(2-methoxypyridin-3-yl)pyrazine] |
| ≤ 0.1 | ≤ 0.1 | Cc1cnc(-c2ccc(Oc3ncccc3-c3cnccc3C)cc2)s1 [I-428] |
| ≤ 0.1 | ≤ 0.1 | COc1ccccc1-c1cccnc1Oc1ccc(OC(F)F)nc1 [I-370, 2-{[6-(difluoromethoxy)pyridin-3-yl]oxy}-3-(2-methoxyphenyl)pyridine] |
| ≤ 0.1 | ≤ 0.1 | COc1ccccc1-c1cccnc1Oc1ccc(C(F)(F)Cn2cccn2)nc1 [I-350, 2-({6-[1,1-difluoro-2-(1H-pyrazol-1-yl)ethyl]pyridin-3-yl}oxy)-3-(2-methoxyphenyl)pyridine] |
| ≤ 0.1 | ≤ 0.1 | COc1ccccc1-c1cncnc1Oc1ccc(C(C)C)cc1 [I-320, 4-(4-isopropylphenoxy)-5-(2-methoxyphenyl)pyrimidine] |
